From BindingDB's records for doi:10.7270/Q2XP73JZ (The Scripps Research Institute Molecular Screening Center, 2013)

Target: T1, Methionine--tRNA ligase (Trypanosoma brucei brucei (strain 927/4 GUTat10.1), UniProt Q38C91)
T1 sequence (Q38C91 whole entry): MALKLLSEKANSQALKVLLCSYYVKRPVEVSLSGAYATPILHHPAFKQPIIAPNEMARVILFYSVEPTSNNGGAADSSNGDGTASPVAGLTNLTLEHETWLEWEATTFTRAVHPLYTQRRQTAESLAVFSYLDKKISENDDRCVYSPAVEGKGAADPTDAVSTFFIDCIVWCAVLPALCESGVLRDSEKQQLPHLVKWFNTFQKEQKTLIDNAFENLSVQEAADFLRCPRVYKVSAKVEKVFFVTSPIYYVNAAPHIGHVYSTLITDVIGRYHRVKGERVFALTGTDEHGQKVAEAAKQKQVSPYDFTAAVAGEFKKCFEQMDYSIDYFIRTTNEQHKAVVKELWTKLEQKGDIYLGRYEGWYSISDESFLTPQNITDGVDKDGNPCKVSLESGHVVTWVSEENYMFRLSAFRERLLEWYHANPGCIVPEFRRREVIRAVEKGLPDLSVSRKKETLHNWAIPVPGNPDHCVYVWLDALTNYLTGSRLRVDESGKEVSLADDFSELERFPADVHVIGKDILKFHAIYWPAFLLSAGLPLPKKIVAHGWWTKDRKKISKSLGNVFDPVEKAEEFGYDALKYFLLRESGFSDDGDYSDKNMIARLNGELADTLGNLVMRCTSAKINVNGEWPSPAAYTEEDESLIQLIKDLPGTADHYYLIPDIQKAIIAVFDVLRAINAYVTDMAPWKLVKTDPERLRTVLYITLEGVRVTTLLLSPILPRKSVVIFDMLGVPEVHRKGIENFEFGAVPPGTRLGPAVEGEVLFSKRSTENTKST

Compound	IC50
Cc1ccc(C(=O)NN2C(=O)/C(=C/c3nc4ccccc4[nH]3)SC2=S)cc1	> 119 µM
O=C(NCc1cc(Br)cc(Br)c1OC(=O)c1ccccc1[N+](=O)[O-])c1ccccc1	> 119 µM
COC(=O)C(C=Nc1ccccc1)NC(=O)c1ccc(Cl)cc1Cl (stereo not drawn)	2.71 µM
N#CC(N=Nc1cc(Cl)cc(Cl)c1)c1nnc2n1CCCCC2 (stereo not drawn)	16.6 µM
Cc1cc2c(c(=O)n1CC1CCCO1)C(c1ccc3c(c1)OCO3)C(C#N)C(=N)O2 (stereo not drawn)	> 119 µM
COC(=O)Cn1c(CC(=O)Nc2ccc(Cl)cc2)c(O)n(-c2ccc(Cl)cc2)c1=S	19.7 µM
c1ccc2[nH]c(N=NCc3c[nH]c4ccccc34)nc2c1 [1-(1H-benzimidazol-2-yl)-2-[(Z)-indol-3-ylidenemethyl]diazane]	32.2 µM
Oc1cc(N(CCc2ccccc2)C(=S)Nc2ccccc2)c(O)n1-c1ccc(Br)cc1 [1-[1-(4-bromophenyl)-2,5-bis(oxidanylidene)pyrrolidin-3-yl]-3-phenyl-1-(2-phenylethyl)thiourea]	0.46 µM
N#Cc1ccccc1CSc1ccc(-c2nc3ccccc3[nH]2)cn1 [2-[5-(1H-Benzoimidazol-2-yl)-pyridin-2-ylsulfanylmethyl]-benzonitrile]	> 119 µM
Cc1cc(Br)cc(Br)c1OCC(=O)NNC(=O)Nc1ccccc1 [2-[(2,4-dibromo-6-methylphenoxy)acetyl]-N-phenylhydrazinecarboxamide]	> 4.39 µM
N#Cc1ccccc1CSc1nc2cc(Br)c[nH]c-2n1 [2-[(6-bromo-1H-imidazo[4,5-b]pyridin-2-yl)sulfanylmethyl]benzonitrile]	> 119 µM
C=C(c1ccc(O)cc1)c1sc(=S)n(CCC(=O)O)c1O [3-[(5Z)-5-[1-(4-hydroxyphenyl)ethylidene]-4-oxidanylidene-2-sulfanylidene-1,3-thiazolidin-3-yl]propanoic acid]	9.47 µM
COc1ccc(NC(=O)COC(=O)CCCOc2ccc(Cl)cc2Cl)cc1 [4-(2,4-dichlorophenoxy)butanoic acid [2-(4-methoxyanilino)-2-oxoethyl] ester]	> 119 µM
O=C(Nc1cccnc1)c1ccc(COc2cc(Cl)ccc2Cl)o1 [5-[(2,5-dichlorophenoxy)methyl]-N-(3-pyridinyl)-2-furancarboxamide]	> 119 µM
Fc1ccccc1CSc1nc2ncc(Br)cc2[nH]1 [6-bromanyl-2-[(2-fluorophenyl)methylsulfanyl]-1H-imidazo[4,5-b]pyridine]	> 119 µM
COc1ccccc1NS(=O)(=O)c1cc(NC(=O)Nc2ccccc2)ccc1N1CCCCC1 [MLS000401499]	> 119 µM
O=C(CSc1ccc(-c2nc3ccccc3[nH]2)cn1)Nc1ccc(S(=O)(=O)N2CCCC2)cc1 [MLS000548715]	> 119 µM

Compound	IC50
Cc1cc(Cl)ccc1OCCCC(=O)NNC(=O)c1ccccc1O [N'-[4-(4-chloro-2-methylphenoxy)butanoyl]-2-hydroxybenzohydrazide]	> 119 µM
Cc1[nH]c2ccccc2c1CN=Nc1nc2ccccc2[nH]1 [N-(1H-Benzoimidazol-2-yl)-N'-[1-(2-methyl-1H-indol-3-yl)-meth-(E)-ylidene]-hydrazine]	36.9 µM
Cc1ccc2nc(-c3ccc(SCC(=O)Nc4ccc5c(c4)OCCO5)nc3)[nH]c2c1 [N-(2,3-dihydro-1,4-benzodioxin-6-yl)-2-[[5-(6-methyl-1H-benzimidazol-2-yl)-2-pyridinyl]thio]acetamide]	> 119 µM
COc1cccc(NC(=O)CSC(N)=O)c1 [S-[2-(3-methoxyanilino)-2-oxoethyl] thiocarbamate]	1.57 µM
O=C(Nc1ccccc1)Nc1ccc(S(=O)(=O)N2CCCCC2)cc1 [SMR000070822]	> 119 µM
Oc1cc(SCc2nc3ccccc3[nH]2)c(O)n1-c1cccc(Cl)c1 [SMR000143477]	2.6 µM
COc1cc(CN=Nc2nc3ccccc3[nH]2)ccc1O [SMR000212232]	102 µM
O=C(Cc1ccc(Br)cc1)NNC(=O)Nc1ccc(Cl)cc1 [SMR000227759]	> 119 µM
O=C(CSc1nc2ccc(Cl)cc2[nH]1)c1c[nH]c2ccccc12 [SMR000261830]	> 119 µM
Clc1cccc(N=NC(Cc2nc3ccccc3[nH]2)c2ccccc2)c1 (stereo not drawn) [SMR000263830]	3.09 µM
COc1ccc(CC(=O)OCC(=O)Nc2ccc(Br)cc2)cc1 [SMR000353950]	> 119 µM
CC(N=Nc1nc2ccccc2[nH]1)c1ccc2c(c1)OCO2 (stereo not drawn) [SMR000354227]	> 119 µM
COc1cc(OC)c(OC)cc1CN=Nc1nc2ccccc2[nH]1 [SMR000440059]	> 119 µM
Cc1csc(CNc2ncnc3ccc(-c4ccccc4Cl)cc23)c1 [SMR001318042]	> 119 µM
COc1ccc(NC(=O)Nc2cccc3cccnc23)cc1 [US9034574, XXIV]	2.82 µM
O=C(OCC(=O)c1c[nH]c2ccccc12)c1ccc(OC(F)F)cc1 [[2-(1H-indol-3-yl)-2-oxidanylidene-ethyl] 4-[bis(fluoranyl)methoxy]benzoate]	> 119 µM
